Assay results reported in US20180353445A1, “METHODS AND COMPOSITIONS RELATING TO PROTEASOME INHIBITOR RESISTANCE” (Whitehead Institute for Biomedical Research, priority 2017, published 2018).
“Also recorded” adds a separate entry of the source.

Legend:
[1] = tested on: T47D cells; experiment: The glucose/galactose drug screen; assay type: cell-based, human; settings: for relative viability change of cells grown in glucose versus galactose: 10 mM Glucose or Galactose, Selleck anti cancer and natural product libraries
[2] = tested on: T47D cells; experiment: Drug library screen (Selleck anti-cancer, NPC, NIH bioactive), PSMD2 KD vs control T47D cells; assay type: cell-based, human; settings: for growth inhibition of T47D cells with reduced level of PSMD2 vs control T47D cells: Selleck anti-cancer compound library screen
Protocol: Schematic representation of the drug screen setup. (FIG. 37A) 147D cells harboring a doxycycline-inducible PSMD2 shRNA were grown in the presence or absence of doxycycline for 48 hr. Cells were then collected, washed, and plated in the absence of doxycycline for 24 hr prior to exposure different compounds. Relative cell numbers were measured 3 days later.
The relative viability of the Lo19S versus control cells was calculated for replica experiments and the log2 of the ratio is plotted. […] The relative viability of the respiring cells (Hi-OXPHOS) (gal) versus the control cells (glu) was calculated for replica experiments and the log2 of the ratio is plotted.
After 48 hours the cells were collected, counted, and plated at 1000 cells/well in 384 well plates in duplicates for each cell line. Compounds from the Selleck Chemicals anti-cancer compound library (349 drugs in 4 concentrations; […]) were pinned the next day and viability was measured after 72 hours by the reduction of Resazurin (Ex=530 run, Em=590nin). (See FIG. 37A for schematic of screen.)

[3] = target: 20S proteasome (Homo sapiens, UniProt P28072+P28074); experiment: Native gel analysis of proteasomal complexes, Suc-LLVY-AMC substrate overlay; assay type: biochemical; settings: control cells, 12 nM, 24 hours
Text: FIGS. 2A-2F: Reducing expression of 19S subunits increases the levels of active 20S proteasomes and protects cancer cells from proteasome (FIG. 2A) HepG2 cells were infected with 80 shRNAs targeting 20 different subunits of the proteasome and 10 control shRNAs. Infected cells were then exposed to […] bortezomib and cell number was examined 4 days later. The plot represents the average (+/−SEM) of four different hairpins targeting the indicated proteasome subunits and their relative cell number following bortezomib treatment. 19S subunits are depicted with orange bars, the control with a blue bar and 20S subunits with green bars. […] (FIG. 2C) The relative cell number of cells harboring a control shLacZ or each of 4 individual shRNAs targeting shPSMD2 was analyzed 4 days after addition of the indicated concentrations of bortezomib. (FIG. 2D) HepG2 cells stably expressing four different shRNAs targeting the PSMD2 subunit and a control shRNA (lacZ) were analyzed by western blot for the indicated proteins 24 hours with or without bortezomib treatment. […] Proteasome complex levels were detected by immunoblot analysis and 20S proteasome activity by measuring the hydrolysis of Suc-LLVY-AMC by substrate overlay assays. * p<0.05 **p<0.01. […]

[4] = tested on: T47D cells harboring a doxycycline inducible PSMD2 KD shRNA construct; experiment: Viability of PSMD2 knockdown versus control T47D cells, dose response and combinations (CellTiter-Glo); assay type: cell-based, human; settings: for sensitivity of PSMD2 KD cells versus control cells (cell viability): 1 ug/ml doxycycline 72 h, viability 72 hours after addition, CellTiter-Glo
Protocol: Cell viability was measured by CellTiter-Glot Luminescent Cell Viability Assay 72 hours after addition of the compounds to cells.
Cell viability was measured by CellTiter-Glo® Luminescent Cell Viability Assay 72 hours after addition of the compounds were added to cells.
Cell viability was measured by CellTiter-Glolk Luminescent Cell Viability Assay 72 hours after addition of the compounds to cells.
To directly test whether altered cellular metabolism can modulate the sensitivity of cancer cells to proteasome inhibitors, we engineered the breast cancer cell line T47D into Lo19S and increased OXPHOS states. Initially, we reconstituted the Lo19S state by transient suppression of the PSMD2 subunit of the 19S complex using an inducible shRNA.
To induce a high OXPHOS (Hi-OXPHOS) state, we changed the carbon source in the cell culture media from glucose to galactose, which is poorly fermentable. This method has been previously shown to drive glutamine utilization by mitochondria and to thus increase mitochondrial respiration (Gohil et al., 2010). […] We reasoned that the Hi-OXPHOS signature we identified in Lo19S patient tumors may cooperate with the Lo19S state to further promote the ability of the cells to withstand proteotoxic stress.
Cell viability—where indicated relative cell number following different drug treatment was conducted by plating cells at 1000 cells/well in 384 well plates. Indicated concentrations of compounds were added 24 hour after plating at least in triplicate for each condition. Viability was measured 72 hours after drug addition using cell titer-glo (Promega) according to manufactures protocol. Same protocol was applied for the experiments conducted for the Lo19S T47D, MCF7 and T47D in the context of altered carbon source only the cells were plated at 1000 cells/well in RPMI media (without glucose and with dialyzed serum) containing either 10 mM Glucose or lOmM galactose.

| SMILES | relative viability change of cells grown in glucose versus galactose [1] | number of concentrations at which respiring cells were preferentially targeted ([1]; galactose versus glucose) [concentrations] | sensitivity of proteasome inhibitor resistant cancer cells vs sensitive counterpart cells [2] | growth inhibition of T47D cells with reduced level of PSMD2 vs control T47D cells [2] | 20S proteasome function [3] | sensitivity of PSMD2 KD cells versus control cells (cell viability) [4] | increase in the EC90 on combining the Lo19S and Hi-OXPHOS states ([4]; T47D, PSMD2 suppression plus galactose medium) [fold] | increase of proliferation inhibition EC50 on inducing the Lo19S state ([4]; T47D, transient PSMD2 suppression versus control) [fold] |
| --- | --- | --- | --- | --- | --- | --- | --- | --- |
| CN(NC(=O)CC(=O)NN(C)C(=S)c1ccccc1)C(=S)c1ccccc1 [elesclomol] | cells that respire are predominantly sensitive; also recorded: preferentially targeted respiring cells; also recorded: more potent in cells in the Hi-OXPHOS state | 5 | highly sensitive | selectively inhibit growth | – | – | – | – |
| CC(C)C[C@H](NC(=O)[C@H](Cc1ccccc1)NC(=O)c1cnccn1)B(O)O [bortezomib] | strongest hits in this screen | – | – | – | nearly complete inactivation | increase in resistance | 50 | ~4 |
| CC1(C)CCC(c2ccc(Cl)cc2)=C(CN2CCN(c3ccc(C(=O)NS(=O)(=O)c4ccc(N[C@H](CCN5CCOCC5)CSc5ccccc5)c(S(=O)(=O)C(F)(F)F)c4)cc3)CC2)C1 [ABT-263, navitoclax] | – | – | highly sensitive | selectively inhibits growth | – | more sensitive; also recorded: not sufficient, however, to induce a profound sensitization | – | – |
